From paper PMC9738927, “A Newly Identified Monoterpenoid-Based Small Molecule Able to Support the Survival of Primary Cultured Dopamine Neurons and Alleviate MPTP-Induced Toxicity In Vivo” (Molecules, 2022)

Columns and labels:
[1] = Pharmacokinetics in brain tissue after a single oral dose (HPLC-MS/MS); format: in vivo, CD1 IGS mice; settings: single oral 10 mg/kg
Description: CD1 IGS mice received a single oral dose of PA96 in Tween 80 (10 mg/kg). Mice were sacrificed 5, 10, 30, 60, and 120 min after injection, and all brain samples were collected and placed into an Eppendorf microtube (2 mL). Samples were frozen with liquid nitrogen for subsequent preparation and HPLC-MS/MS analysis. A set of calibrators were prepared, followed by their preparation protocol, and analyzed. The calibration curve was built in the interval of 1–100 ng/g and used to calculate the PA96 concentration in the brain tissue samples.
A stock solution was prepared by dissolving approximately 10 mg of PA96 in a required amount of pure methanol to have the solution with a concentration of 1.0 mg/mL. The working solutions of PA96 with concentrations of 5, 7.5, 25, 50, 75, 250, and 300 ng/mL were prepared by diluting the stock solution with methanol. To prepare a calibrator, a free PA96 brain tissue (~50 mg) was weighed and transferred into an Eppendorf microtube (V = 1.5 mL), then the working solution of PA-96 was added. The mixture was homogenized (Minilys, Bertin Technologies, Montigny-leBretonneux, France) for 60 s at low speed. The calibrators were prepared on the day of the experiment. The working solution of IS in acetonitrile with a concentration of 1.0 mg/mL was used. All the solutions were stored at −18 °C. Before sample preparation, the solutions were brought to room temperature.
The exact amount (~50 mg) of the mouse brain tissue sample was transferred into a polypropylene tube (1.5 mL). For each portion, the solution of IS (1 µL per 1 mg of the brain sample) and pure acetonitrile (10 µL per 1 mg of the brain sample) were added, then all samples were homogenized for 4 min at medium speed. After the homogenization procedure, ~100 mg of the salt mixture (magnesium sulfate: sodium chloride: trisodium citrate: disodium citrate as 4:1:1:0.5) for extraction was added, followed by shaking for 30 min at 1400 rpm in an orbital shaker. The supernatant was separated from the homogenate by centrifugation for 10 min at 13,400 rpm. The obtained solution was further shaken with ~80 mg of the SPE mixture (magnesium sulfate:C18EC as 6:1 and acetonitrile) for 10 min at 1400 rpm and centrifuged for 10 min at 13,400 rpm. A total of 300 µL of the organic phase was placed into a fresh tube and evaporated to dryness in a vacuum. The residue containing the analyte and IS was dissolved in 150 μL of methanol, shaken for 10 min, transferred into a chromatographic vial, and analyzed by HPLC-MS/MS.
The LC-MS/MS analysis was performed using an LC-20AD Prominence chromatograph equipped with an autosampler thermostated at +10 °C (Shimadzu, Japan) and a 3200 QTRAP mass spectrometer equipped with an ESI source (AB SCIEX, USA). Separation was achieved on a ProntoSil-120-5-C18 AQ column (2.0 × 75 mm, 5 μm particles, (EcoNova, Novosibirsk, Russia)) thermostated at +35 °C. The mobile phase was composed of water containing 0.1% formic acid (eluent A) and methanol containing 0.1% formic acid (eluent B). The gradient elution program was as follows: 0 min-10% (B); 0.5 min-10% (B); 7 min-98% (B); 9 min-98% (B); the flow rate was 200 μL/min.
The mass spectrometer was operated using multiple reaction monitoring (MRM) in positive ion mode. Ionization was conducted by applying a voltage of 5500 V, and the source temperature was set at +350 °C. For the analyte and IS, the optimized source parameters, viz. CUR (curtain gas), GS1 (Gas 1), and GS2 (Gas 2) were set at 20 psi. The CAD (collisionally activated dissociation) gas was nitrogen, and the parameter was set as high. The parameters of PA96, viz. MRM transitions, declustering potentials (DP), collision energies (CE), and collision cell exit potentials (CXP) are presented in Table 3. The dwell time was 100 msec. Analyst 1.6.2 software (AB SCIEX, USA) was used for instrument control and data acquisition, and MultiQuant 2.1 software (AB SCIEX, USA) was used for quantification. […]

[2] = system: MPTP-lesioned C57BL/6 mice; test: DA and DOPAC levels in midbrain and striatum by HPLC-ED after MPTP lesion; format: in vivo
Description: Neurochemical analyses via HPLC-ED were conducted as described before. Microdissected samples of the striatum (ST) and midbrain were homogenized in 300 and 400 µL of cold 0.6 M HClO4, respectively, using a motor-driven grinder (Z359971, Sigma-Aldrich, USA) and the homogenate was spun for 15 min at 12,000 rpm (+4 °C). The pellet was diluted in 1 mL of 0.1 M NaCl and used for protein quantitation by Bradford (Bio Rad, USA) according to the manufacturer’s protocol. The clear supernatant was diluted twice with pure water and used for assay of DA and […] (DOPAC) by HPLC on Luna C18(2) column (5 μm particle size, L × I.D. 75 × 4.6 mm, Phenomenex, Torrance, CA, USA) with electrochemical detection (750 mV, DECADE II™ Electrochemical Detector; Antec, The Netherlands). The standard mixes containing 1, 2, and 3 ng of DA and DOPAC were repeatedly assayed throughout the entire procedure and used to plot the calibration curves for each substance. The areas of peaks were estimated using LabSolution LG/GC software version 5.54 (Shimadzu Corporation, Japan) and calibrated against the calibrated curves for corresponding standards. The contents of DA and DOPAC were expressed nanogram (ng) per milligram (mg) of protein assayed by Bradford.

MPTP-treated mice = test: Open field test in the acute MPTP mouse model of PD; format: in vivo
Description: MPTP was injected intraperitoneally into mice of C57Bl/6 line every 2 h in 8 h period in one day in a dose of 20 mg/kg for a total of four doses as described before, and one additional dose of MPTP was injected on the 7th day. The studied compound PA96 was dissolved in saline containing 0.5% Tween 80 just before use. PA96 in a dose of 1 and 10 mg/kg or VEH was administrated per os 24 h after the last injection of MPTP. Then, PA96 or VEH was injected for 14 days in a 5-day-per-week regime for a total of […].
The effectiveness of the studied medications was evaluated according to their ability to reduce the symptoms of hypokinesia induced by MPTP on days 1, 7, and 14 of the experiment. Hypokinesia caused by neurotoxin administration was evaluated with the “open field” test performed for 2 min using Tru Scan (U.S.) 2 h after the administration of the studied compound, registering the main markers of the locomotor and exploratory activities: time of locomotor activity (s) and movement distance (cm).

## C=C(C)[C@@H]1CC=C(C)[C@@H](Sc2nc[nH]n2)[C@@H]1O [PA96, (1R,2R,6S)-2-(1H-1,2,4-triazol-3-ylthio)-3-methyl-6-(prop-1-en-2-yl)cyclohex-3-enol]
[1]; CD1 IGS, mouse, brain and whole blood, read-out: Kb,brain (brain-to-blood coefficient, AUCbrain/AUCblood)
  Kp: 0.119 ± 0.01
[1]; CD1 IGS, mouse, brain
  Cmax: 125 ng/g
  Tmax: 5 min
  half-life: 18.8 ± 0.3 min
[1]; CD1 IGS, mouse, brain, read-out: MRT0-inf_obs (converted)
  MRT inf: 21.5 min
[1]; at 5 min
  concentration in blood higher than in brain tissue: approximately 4.5 times
[1]; brain
  AUC0-inf_obs: (2.03 ± 0.09) × 10^3 ng/g∗min
  AUC0-t: (1.99 ± 0.09) × 10^3 ng/g∗min
[1]
  time at which the concentration in brain was close to the minimum value: 2 h
[2]
  MPTP-induced reduction in DA level in the midbrain: tended to alleviate
[2]; 10 mg/kg
  DA and DOPAC concentrations in ST or midbrain: did not affect
MPTP-treated mice; 1 mg/kg and 10 mg/kg administered for 14 days
  tolerability of repeated dosing: well tolerated
MPTP-treated mice; MPTP-treated mice, 1 mg/kg, 24 h time point, p = 0.1328 vs VEH
  duration of locomotor activity in open field: on VEH level
MPTP-treated mice; MPTP-treated mice, 1 and 10 mg/kg per os
  movement distance in open field: did not influence
